Measurements reported in PMC3954439 (Molecular cancer therapeutics, 2014).

Target: T1, ABCC10 (MRP7) (Homo sapiens, UniProt Q5T3U5)
T1 sequence (Q5T3U5 1-1492): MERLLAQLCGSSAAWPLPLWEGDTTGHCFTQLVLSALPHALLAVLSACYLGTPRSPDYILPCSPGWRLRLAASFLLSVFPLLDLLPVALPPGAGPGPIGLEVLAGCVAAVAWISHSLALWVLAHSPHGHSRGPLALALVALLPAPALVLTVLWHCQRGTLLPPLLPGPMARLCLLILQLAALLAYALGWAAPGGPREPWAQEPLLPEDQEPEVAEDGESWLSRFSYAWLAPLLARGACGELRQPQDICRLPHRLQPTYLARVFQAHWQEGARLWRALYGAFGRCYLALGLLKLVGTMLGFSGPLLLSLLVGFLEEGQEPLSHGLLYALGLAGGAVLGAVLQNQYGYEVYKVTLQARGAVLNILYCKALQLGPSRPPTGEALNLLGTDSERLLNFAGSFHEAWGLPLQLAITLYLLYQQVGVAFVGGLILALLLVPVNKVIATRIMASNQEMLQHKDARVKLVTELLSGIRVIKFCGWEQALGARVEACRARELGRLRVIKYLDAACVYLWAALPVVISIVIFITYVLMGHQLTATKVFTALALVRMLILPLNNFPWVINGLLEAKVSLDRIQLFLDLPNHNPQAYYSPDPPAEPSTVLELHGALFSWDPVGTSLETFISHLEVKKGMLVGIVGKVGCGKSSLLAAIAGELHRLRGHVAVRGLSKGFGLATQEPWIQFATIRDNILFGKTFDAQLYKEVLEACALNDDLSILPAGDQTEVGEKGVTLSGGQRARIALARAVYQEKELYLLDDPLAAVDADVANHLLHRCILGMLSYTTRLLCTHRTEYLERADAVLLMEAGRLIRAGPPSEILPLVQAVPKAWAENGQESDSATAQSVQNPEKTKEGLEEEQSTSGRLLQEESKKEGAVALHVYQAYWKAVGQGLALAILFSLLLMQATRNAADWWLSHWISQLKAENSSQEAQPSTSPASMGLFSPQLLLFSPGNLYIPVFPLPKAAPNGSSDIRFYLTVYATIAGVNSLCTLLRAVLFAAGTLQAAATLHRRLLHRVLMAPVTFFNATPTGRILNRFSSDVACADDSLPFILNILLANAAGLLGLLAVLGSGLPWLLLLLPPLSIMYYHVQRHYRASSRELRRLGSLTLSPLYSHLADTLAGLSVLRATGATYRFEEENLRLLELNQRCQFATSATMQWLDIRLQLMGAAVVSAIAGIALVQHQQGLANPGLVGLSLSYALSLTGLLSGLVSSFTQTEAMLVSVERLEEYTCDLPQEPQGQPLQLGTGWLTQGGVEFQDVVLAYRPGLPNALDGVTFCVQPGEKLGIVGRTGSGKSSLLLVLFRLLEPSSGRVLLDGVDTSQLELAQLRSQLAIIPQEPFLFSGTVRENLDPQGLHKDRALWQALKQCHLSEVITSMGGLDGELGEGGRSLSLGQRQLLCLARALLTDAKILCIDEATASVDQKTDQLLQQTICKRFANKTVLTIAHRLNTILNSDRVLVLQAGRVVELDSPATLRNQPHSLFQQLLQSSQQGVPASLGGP
Assay: [3H]-paclitaxel efflux, HEK293/ABCC10 vs HEK293/pcDNA3.[…] cells
Format: cell-based
Conditions: labelled compound; 0.01 uM; 37 C; whole cells

CC(=O)O[C@H]1C(=O)[C@@]2(C)[C@H]([C@H](OC(=O)c3ccccc3)[C@]3(O)C[C@H](OC(=O)[C@H](O)[C@@H](NC(=O)c4ccccc4)c4ccccc4)C(C)=C1C3(C)C)[C@]1(OC(C)=O)CO[C@@H]1C[C@@H]2O [[3H]-paclitaxel]
[3H]-paclitaxel efflux, HEK293/ABCC10 vs HEK293/pcDNA3.1 cells: due to active efflux of the [^3H]-paclitaxel via ABCC10
